Reference: patent US20110039847A1, “AMIDE DERIVATIVES AS SIRTUIN MODULATORS” (Sirtris Pharmaceuticals, Inc, priority 2007, published 2011)

Target: T1, SIRT1 (Homo sapiens, UniProt Q96EB6)
T1 sequence (Q96EB6 1-747): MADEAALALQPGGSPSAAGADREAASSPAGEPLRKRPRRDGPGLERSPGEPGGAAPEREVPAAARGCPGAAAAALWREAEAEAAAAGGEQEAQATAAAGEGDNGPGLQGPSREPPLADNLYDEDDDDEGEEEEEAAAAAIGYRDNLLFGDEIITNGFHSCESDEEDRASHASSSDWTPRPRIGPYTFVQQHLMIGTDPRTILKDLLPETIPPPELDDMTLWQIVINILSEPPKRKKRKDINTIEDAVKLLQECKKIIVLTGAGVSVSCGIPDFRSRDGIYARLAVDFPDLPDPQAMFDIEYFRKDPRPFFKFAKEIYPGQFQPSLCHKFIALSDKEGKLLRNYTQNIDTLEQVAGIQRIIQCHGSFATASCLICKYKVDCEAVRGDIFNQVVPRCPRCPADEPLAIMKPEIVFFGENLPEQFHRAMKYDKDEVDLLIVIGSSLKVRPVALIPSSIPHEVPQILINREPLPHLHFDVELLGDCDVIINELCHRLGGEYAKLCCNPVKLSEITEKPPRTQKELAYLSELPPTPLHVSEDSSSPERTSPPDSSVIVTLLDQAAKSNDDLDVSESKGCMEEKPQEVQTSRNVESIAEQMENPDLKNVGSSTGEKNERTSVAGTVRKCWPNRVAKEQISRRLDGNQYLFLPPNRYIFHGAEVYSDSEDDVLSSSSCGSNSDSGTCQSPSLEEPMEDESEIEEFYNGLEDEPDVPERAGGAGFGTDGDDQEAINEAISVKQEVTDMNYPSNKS
Test: Mass spectrometry based SIRT1 deacetylation (activation) assay
Type: biochemical
Details: 0.5 μM peptide substrate, 120 μM βNAD+, 10 nM SIRT1, 25 min at 25° C.; for Emax: 25 min, read-out: % Fold Act. (percent maximum fold activation)
Text: A mass spectrometry based assay was used to identify modulators of SIRT1 activity. The mass spectrometry based assay utilizes a peptide having 20 amino acid residues as follows: Ac-EE-K(biotin)-GQSTSSHSK(Ac)NleSTEG-K(5TMR)-EE-NH2 (SEQ ID NO: 1) wherein K(Ac) is an acetylated lysine residue and Nle is a norleucine. The peptide is labeled with the fluorophore 5TMR (excitation 540 nm/emission 580 nm) at the C-terminus. The sequence of the peptide substrate is based on p53 with several modifications. In addition, the methionine residue naturally present in the sequence was replaced with the norleucine because the methionine may be susceptible to oxidation during synthesis and purification.
The mass spectrometry assay is conducted as follows: 0.5 μM peptide substrate and 120 μM βNAD^+ is incubated with 10 nM SIRT1 for 25 minutes at 25° C. in a reaction buffer (50 mM Tris-acetate pH 8, 137 mM NaCl, 2.7 mM KCl, 1 mM MgCl2, 5 mM DTT, 0.05% BSA). Test compounds may be added to the reaction as described above. […] After the 25 minute incubation with SIRT1, 10 μL of 10% formic acid is added to stop the reaction. Reactions are sealed and frozen for later mass spec analysis. Determination of the mass of the substrate peptide allows for precise determination of the degree of acetylation (i.e. starting material) as compared to deacetylated peptide (product).
A control for inhibition of sirtuin activity is conducted by adding 1 μL of 500 mM nicotinamide as a negative control at the start of the reaction (e.g., permits determination of maximum sirtuin inhibition). A control for activation of sirtuin activity is conducted using 10 nM of sirtuin protein, with 1 μL of DMSO in place of compound, to determine the amount of deacetylation of the substrate at a given timepoint within the linear range of the assay. This timepoint is the same as that used for test compounds and, within the linear range, the endpoint represents a change in velocity.
For the above assay, SIRT1 protein was expressed and purified as follows. […] The protein was expressed by induction with 1 mM IPTG as an N-terminal His-tag fusion protein at 18° C. overnight and harvested at 30,000×g. Cells were lysed with lysozyme in lysis buffer (50 mM Tris-HCl, 2 mM Tris[2-carboxyethyl]phosphine (TCEP), 10 μM ZnCl2, 200 mM NaCl) and further treated with sonication for 10 min for complete lysis. The protein was purified over a Ni-NTA column (Amersham) and fractions containing pure protein were pooled, concentrated and run over a sizing column (Sephadex S200 26/60 global). The peak containing soluble protein was collected and run on an Ion-exchange column (MonoQ). Gradient elution (200 mM-500 mM NaCl) yielded pure protein. This protein was concentrated and dialyzed against dialysis buffer (20 mM Tris-HCl, 2 mM TCEP) overnight. The protein was aliquoted and frozen at −80° C. until further use.

| Structure (SMILES) | EC1.5 | Emax [%] |
| --- | --- | --- |
| CCN(CCN(C)C)c1cc(C(=O)Nc2ccccc2-c2ncc(C(C)(C)C)o2)nc(-c2ccccc2)c1 [Compound 43] | A (EC1.5≦1 uM) | ≥ 300 |
| CNCCN(C)c1cc(C(=O)Nc2ccccc2-c2nnc(-c3ccccc3)s2)nc(-c2ccccc2)c1 [Compound 44] | A (EC1.5≦1 uM) | ≥ 300 |
| CN(C)CCN(C)c1cc(C(=O)Nc2ccccc2-c2nnc(C3CCC3)s2)nc(-c2ccccc2)n1 [Compound 45] | A (EC1.5≦1 uM) | 150 to 300 |
| CNCCN(C)c1cc(C(=O)Nc2ccccc2-c2nnc(C3CCC3)s2)nc(-c2ccccc2)n1 [Compound 47] | A (EC1.5≦1 uM) | 150 to 300 |
| CN(C)CCNc1cc(C(=O)Nc2ccccc2-c2nnc(C3CCC3)s2)nc(-c2ccccc2)n1 [Compound 48] | B (EC1.5>1 and ≦10 uM) | 150 to 300 |
| CN(C)CCNc1cc(C(=O)Nc2ccccc2-c2nnc(C3CCCC3)s2)nc(-c2ccccc2)n1 [Compound 49] | B (EC1.5>1 and ≦10 uM) | 150 to 300 |
| CCN(CCN(C)C)c1cc(C(=O)Nc2ccccc2-c2nnc(C3CCCC3)s2)nc(-c2ccccc2)n1 [Compound 50] | B (EC1.5>1 and ≦10 uM) | 150 to 300 |
| CCN(CCN(C)C)c1cc(C(=O)Nc2ccccc2-c2nnc(C3CCC3)s2)nc(-c2ccccc2)n1 [Compound 51] | A (EC1.5≦1 uM) | 150 to 300 |
| CCc1nnc(-c2ccccc2NC(=O)c2cc(N(C)CCNC)nc(-c3ccccc3)n2)s1 [Compound 52] | A (EC1.5≦1 uM) | 150 to 300 |
| CCc1nnc(-c2ccccc2NC(=O)c2cc(NCCN(C)C)nc(-c3ccccc3)n2)s1 [Compound 53] | B (EC1.5>1 and ≦10 uM) | 150 to 300 |
| CCCc1nnc(-c2ccccc2NC(=O)c2cc(NCCN(C)C)nc(-c3ccccc3)n2)s1 [Compound 54] | B (EC1.5>1 and ≦10 uM) | 150 to 300 |
| CCc1nnc(-c2ccccc2NC(=O)c2cc(N(CC)CCN(C)C)nc(-c3ccccc3)n2)s1 [Compound 55] | A (EC1.5≦1 uM) | 150 to 300 |
| CCc1nnc(-c2ccccc2NC(=O)c2cc(N(C)CCN(C)C)nc(-c3ccccc3)n2)s1 [Compound 56] | B (EC1.5>1 and ≦10 uM) | 150 to 300 |
| CCOC(=O)c1nnc(-c2ccccc2NC(=O)c2cc(N(C)CCN(C)C)nc(-c3ccccc3)n2)s1 [Compound 57] | C (EC1.5>10 uM) | < 150 |
| CN(C)CCNC(=O)c1nnc(-c2ccccc2NC(=O)c2cc(NCCN(C)C)nc(-c3ccccc3)n2)s1 [Compound 58] | A (EC1.5≦1 uM) | ≥ 300 |
| CCOC(=O)c1nnc(-c2ccccc2NC(=O)c2cc(N(CC)CCN(C)C)nc(-c3ccccc3)n2)s1 [Compound 59] | A (EC1.5≦1 uM) | 150 to 300 |
| CC(C)Cc1nnc(-c2ccccc2NC(=O)c2cc(NCCN(C)C)nc(-c3ccccc3)n2)s1 [Compound 60] | A (EC1.5≦1 uM) | 150 to 300 |

The remaining lines, values ahead:

| EC1.5 | Emax [%] | Structure (SMILES) |
| --- | --- | --- |
| B (EC1.5>1 and ≦10 uM) | < 150 | CCCCc1nnc(-c2ccccc2NC(=O)c2cc(NCCN(C)C)nc(-c3ccccc3)n2)s1 [Compound 61] |
| A (EC1.5≦1 uM) | 150 to 300 | CCCCc1nnc(-c2ccccc2NC(=O)c2cc(N(CC)CCN(C)C)nc(-c3ccccc3)n2)s1 [Compound 62] |
| A (EC1.5≦1 uM) | 150 to 300 | CCN(CCN(C)C)c1cc(C(=O)Nc2ccccc2-c2ncc(C(C)(C)C)s2)nc(-c2ccccc2)n1 [Compound 63] |
| A (EC1.5≦1 uM) | 150 to 300 | CCN(CCN(C)C)c1cc(C(=O)Nc2ccccc2-c2ncc(-c3ccccc3)o2)nc(-c2ccccc2)n1 [Compound 64] |
| B (EC1.5>1 and ≦10 uM) | 150 to 300 | CCN(CCN(C)C)c1cc(C(=O)Nc2ccccc2-c2ncc(C(C)(C)C)o2)nc(-c2ccccc2)n1 [Compound 65] |
| A (EC1.5≦1 uM) | 150 to 300 | CN(C)CCNc1cc(C(=O)Nc2ccccc2-c2nnc(C(N)=O)s2)nc(-c2ccccc2)n1 [Compound 66] |
| A (EC1.5≦1 uM) | 150 to 300 | NC(=O)c1nnc(-c2ccccc2NC(=O)c2cc(N3CCNCC3)nc(-c3ccccc3)n2)s1 [Compound 67] |
| A (EC1.5≦1 uM) | ≥ 300 | CCN(CCN(C)C)c1cc(C(=O)Nc2ccccc2-c2cnc(-c3ccccc3)[nH]2)nc(-c2ccccc2)n1 [Compound 68] |
| A (EC1.5≦1 uM) | 150 to 300 | NC(=O)c1nnc(-c2ccccc2NC(=O)c2cc(N3CCN4CCC[C@H]4C3)nc(-c3ccccc3)n2)s1 [Compound 69] |
| A (EC1.5≦1 uM) | 150 to 300 | CC(C)(C)c1cnc(-c2ccccc2NC(=O)c2cc(N3CCOCC3)cc(-c3ccccc3)n2)o1 [Compound 70] |
| A (EC1.5≦1 uM) | 150 to 300 | CCN(CCN(C)C)c1cc(C(=O)Nc2ccccc2-c2nnc(C(N)=O)s2)nc(-c2ccccc2)n1 [Compound 71] |
| A (EC1.5≦1 uM) | ≥ 300 | CC(C)c1nnc(-c2ccccc2NC(=O)c2cc(NCCN(C)C)nc(-c3ccccc3)n2)s1 [Compound 72] |
| A (EC1.5≦1 uM) | ≥ 300 | CN(C)CCNc1cc(C(=O)Nc2ccccc2-c2nnc(-c3ccccn3)s2)nc(-c2ccccc2)n1 [Compound 73] |
| A (EC1.5≦1 uM) | ≥ 300 | CCN(CCN(C)C)c1cc(C(=O)Nc2ccccc2-c2nnc(-c3ccccn3)s2)nc(-c2ccccc2)n1 [Compound 74] |
| B (EC1.5>1 and ≦10 uM) | ≥ 300 | CC(C)(C)c1cnc(-c2ccccc2NC(=O)c2cc(OC[C@@H](O)CO)cc(-c3ccccc3)n2)s1 [Compound 75] |
| B (EC1.5>1 and ≦10 uM) | ≥ 300 | CC(C)(C)c1cnc(-c2ccccc2NC(=O)c2cc(OC[C@@H](O)CO)cc(-c3ccccc3)n2)o1 [Compound 76] |
| A (EC1.5≦1 uM) | ≥ 300 | CN(C)CCNc1cc(C(=O)Nc2ccccc2-c2nnc(-c3cccnc3)s2)nc(-c2ccccc2)n1 [Compound 77] |
| A (EC1.5≦1 uM) | ≥ 300 | CN(C)CCNc1cc(C(=O)Nc2ccccc2-c2nnc(-c3ccncc3)s2)nc(-c2ccccc2)n1 [Compound 78] |
| A (EC1.5≦1 uM) | ≥ 300 | CCCc1nnc(-c2ccccc2NC(=O)c2cc(N(CC)CCN(C)C)nc(-c3ccccc3)n2)s1 [Compound 79] |
| B (EC1.5>1 and ≦10 uM) | 150 to 300 | CCN(CCN(C)C)c1cc(C(=O)Nc2ccccc2-c2nnc(CC(C)C)s2)nc(-c2ccccc2)n1 [Compound 80] |
| A (EC1.5≦1 uM) | ≥ 300 | CCN(CCN(C)C)c1cc(C(=O)Nc2ccccc2-c2nnc(-c3cccnc3)s2)nc(-c2ccccc2)n1 [Compound 81] |
| A (EC1.5≦1 uM) | ≥ 300 | CCN(CCN(C)C)c1cc(C(=O)Nc2ccccc2-c2nnc(-c3ccncc3)s2)nc(-c2ccccc2)n1 [Compound 82] |
